Laboratory results from publication PMC11379708, “Divergent mechanisms of steroid inhibition in the human ρ1 GABAA receptor” (Nature Communications, 2024).
Structures can show the parent of a compound that is named as a salt.

Columns and labels:
[1] = molecular target: T1, human ρ1 GABAA receptor (Homo sapiens, UniProt P24046); test: cryo-EM structure ([…] Å); TEVC inhibition in Xenopus oocytes; F283Y/F284Y ablates inhibition; assay type: cell-based
T1 construct: gene GABRR1; ρ1-EM (flexible N-terminal region and intracellular M3-M4 loop deleted), homopentamer in saposin nanodiscs

[2] = molecular target: T1, human ρ1 GABAA receptor; test: cryo-EM structure with GABA; TEVC voltage-dependent block (Woodhull fit); assay type: cell-based

T1 sequence (P24046 22-479): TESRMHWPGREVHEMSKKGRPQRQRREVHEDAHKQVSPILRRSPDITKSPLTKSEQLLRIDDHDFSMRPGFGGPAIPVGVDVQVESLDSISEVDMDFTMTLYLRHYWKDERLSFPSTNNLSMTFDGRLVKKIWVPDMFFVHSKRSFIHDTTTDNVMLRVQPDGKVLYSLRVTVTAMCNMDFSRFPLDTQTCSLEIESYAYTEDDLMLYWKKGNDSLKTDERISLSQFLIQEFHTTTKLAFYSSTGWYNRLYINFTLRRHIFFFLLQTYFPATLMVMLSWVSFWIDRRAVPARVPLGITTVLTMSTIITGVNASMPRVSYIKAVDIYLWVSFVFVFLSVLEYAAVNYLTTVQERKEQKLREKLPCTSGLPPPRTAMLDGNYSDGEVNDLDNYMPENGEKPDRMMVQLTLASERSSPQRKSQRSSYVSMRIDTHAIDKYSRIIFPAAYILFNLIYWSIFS

IC50 [1] [µM]	SMILES	Kd [2] [µM]
~30	C[C@]12CC[C@@H]3c4ccc(O)cc4CC[C@H]3[C@@H]1CC[C@@H]2O [E2, β-estradiol]	–
–	CC(=O)C1CCC2C3CC=C4CC(OS(=O)(=O)O)CCC4(C)C3CCC12C (centres unmarked) [PS, pregnenolone sulfate]	36.3
